These results are taken from patent publication US9242984B2, “Pyrazolyl derivatives as Syk inhibitors” (Merck Sharp & Dohme Corp., priority 2012, dated 2016).

In the experiment the target is T1, recombinant human Syk (GST-hSyk fusion protein) (Homo sapiens, UniProt P43405).
T1 construct: purchased Carna Biosciences 08-176
The experiment is described as follows: Homogeneous Time-Resolved Fluorescence (HTRF) assay for the recombinant human Syk enzyme. Format: biochemical. The settings on record: IC50 class; 10-dose titration, 25 μM ATP; read-out: rhSYK Activity. The procedure, abridged: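 GST-hSyk (5 pM) preincubated 10 min with compound (0.1% DMSO) in 15 mM Tris-HCl pH 7.5, 2 mM DTT; reaction started with 250 nM biotinylated peptide, 5 mM Mg, 25 μM ATP, 45 min, room temperature. EDTA quench, Eu-anti-phosphotyrosine/SA-APC HTRF read after 30 min; IC50 from 10-dose titration (10 μM–0.508 nM), four-parameter fit.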
For the compound `O=C1NCC(Cn2cc(-c3cccc(Nc4cc(C(F)F)ccn4)n3)cn2)O1` (stereo not shown) [Example 3.82, 5-{[4-(6-{[4-(difluoromethyl)pyridin-2-yl]amino}pyridin-2-yl)-1H-pyrazol-1-yl]methyl}-1,3-oxazolidin-2-one], the IC50 is no more than 100 nM.

For the compound `Cc1cc(Nc2cc(C(F)F)ccn2)nc(-c2cnn(CC3CNC(=O)O3)c2)c1` (stereo not shown) [Example 3.83, 5-{[4-(6-{[4-(difluoromethyl)pyridin-2-yl]amino}-4-methylpyridin-2-yl)-1H-pyrazol-1-yl]methyl}-1,3-oxazolidin-2-one], the IC50 is no more than 100 nM.

As for `O=C1NCC(Cn2cc(-c3cccc(Nc4cc(C(F)F)ccn4)n3)cn2)O1` (stereo not shown) [Example 3.84, 5-{[4-(6-{[4-(difluoromethyl)pyridin-2-yl]amino}pyridin-2-yl)-1H-pyrazol-1-yl]methyl}-1,3-oxazolidin-2-one], the IC50 was no more than 100 nM.

For `Cc1cc(Nc2cc(C(C)(F)F)ccn2)nc(-c2cnn(CC3CNC(=O)O3)c2)c1` (stereo not shown) [Example 3.85, 5-{[4-(6-{[4-(1,1-difluoroethyl)pyridin-2-yl]amino}-4-methylpyridin-2-yl)-1H-pyrazol-1-yl]methyl}-1,3-oxazolidin-2-one], the IC50 is no more than 100 nM.

As to `Cc1cc(Nc2cc(C(C)(F)F)ccn2)nc(-c2cnn(CC3CNC(=O)O3)c2)c1` (stereo not shown) [Example 3.86, 5-{[4-(6-{[4-(1,1-difluoroethyl)pyridin-2-yl]amino}-4-methylpyridin-2-yl)-1H-pyrazol-1-yl]methyl}-1,3-oxazolidin-2-one], the IC50 is no more than 100 nM.

With `Cc1cc(Nc2cc(C(F)F)ccn2)nc(-c2cnn(C(C)C3CNC(=O)O3)c2)c1` (stereo not shown) [Example 3.87, 5-{1-[4-(6-{[4-(difluoromethyl)pyridin-2-yl]amino}-4-methylpyridin-2-yl)-1H-pyrazol-1-yl]ethyl}-1,3-oxazolidin-2-one], the IC50 is no more than 100 nM.

`Cc1cc(Nc2cc(C(F)F)ccn2)nc(-c2cnn(C(C)C3CNC(=O)O3)c2)c1` (stereo not shown) [Example 3.88, 5-{1-[4-(6-{[4-(difluoromethyl)pyridin-2-yl]amino}-4-methylpyridin-2-yl)-1H-pyrazol-1-yl]ethyl}-1,3-oxazolidin-2-one]: the IC50 is no more than 100 nM.

Consider `Cc1cc(Nc2nccc(C(F)F)n2)cc(-c2cnn(CC3CC(=O)NC34CC4)c2)c1` (stereo not shown) [Example 3.89, 7-{[4-(3-{[4-(difluoromethyl)pyrimidin-2-yl]amino}-5-methylphenyl)-1H-pyrazol-1-yl]methyl}-4-azaspiro[2.4]heptan-5-one], for which the IC50 is no more than 100 nM.

Take `Cc1cc(Nc2nccc(C(F)F)n2)cc(-c2cnn(CC3CC(=O)NC34CC4)c2)c1` (stereo not shown) [Example 3.90, 7-{[4-(3-{[4-(difluoromethyl)pyrimidin-2-yl]amino}-5-methylphenyl)-1H-pyrazol-1-yl]methyl}-4-azaspiro[2.4]heptan-5-one]: the IC50 is no more than 100 nM.

In the case of `Cc1cc(Nc2nccc(C(F)F)n2)cc(-c2cnn(C(C)C3CNC(=O)O3)c2)c1` (stereo not shown) [Example 3.91, 5-{1-[4-(3-{[4-(difluoromethyl)pyrimidin-2-yl]amino}-5-methylphenyl)-1H-pyrazol-1-yl]ethyl}-1,3-oxazolidin-2-one], the IC50 was no more than 100 nM.

With `Cc1cc(Nc2nccc(C(F)F)n2)cc(-c2cnn(CC3OC(=O)NC34CC4)c2)c1` (stereo not shown) [Example 3.92, 7-{[4-(3-{[4-(difluoromethyl)pyrimidin-2-yl]amino}-5-methylphenyl)-1H-pyrazol-1-yl]methyl}-6-oxa-4-azaspiro[2.4]heptan-5-one], the IC50 is no more than 100 nM.

For `Cc1cc(Nc2nccc(C(F)F)n2)cc(-c2cnn(C(C)C3CNC(=O)O3)c2)c1` (stereo not shown) [Example 3.93, 5-{1-[4-(3-{[4-(difluoromethyl)pyrimidin-2-yl]amino}-5-methylphenyl)-1H-pyrazol-1-yl]ethyl}-1,3-oxazolidin-2-one], the IC50 is no more than 100 nM.

Take `Cc1cc(Nc2nccc(C(F)F)n2)cc(-c2cnn(CC3OC(=O)NC34CC4)c2)c1` (stereo not shown) [Example 3.94, 7-{[4-(3-{[4-(difluoromethyl)pyrimidin-2-yl]amino}-5-methylphenyl)-1H-pyrazol-1-yl]methyl}-6-oxa-4-azaspiro[2.4]heptan-5-one]: the IC50 is no more than 100 nM.

As to `Cc1cc(Nc2nccc(C(F)F)n2)cc(-c2cnn(Cc3ccc(=O)[nH]c3)c2)c1` [Example 3.95, 5-{[4-(3-{[4-(difluoromethyl)pyrimidin-2-yl]amino}-5-methylphenyl)-1H-pyrazol-1-yl]methyl}pyridin-2(1H)-one], the IC50 is no more than 100 nM.

As for `Cc1cc(Nc2nccc(C(F)(F)F)n2)cc(-c2cnn(C[C@H]3COC(=O)N3)c2)c1` [Example 3.96, (4S)-4-{[4-(3-methyl-5-{[4-(trifluoromethyl)pyrimidin-2-yl]amino}phenyl)-1H-pyrazol-1-yl]methyl}-1,3-oxazolidin-2-one], the IC50 was no more than 100 nM.

Turning to `Cc1cc(Nc2nccc(C(F)(F)F)n2)cc(-c2cnn(C[C@@H]3COC(=O)N3)c2)c1` [Example 3.97, (4R)-4-{[4-(3-methyl-5-{[4-(trifluoromethyl)pyrimidin-2-yl]amino}phenyl)-1H-pyrazol-1-yl]methyl}-1,3-oxazolidin-2-one], the IC50 was no more than 100 nM.

For the compound `CC(=O)C(C)n1cc(-c2cc(C)cc(Nc3nccc(C(F)F)n3)c2)cn1` (stereo not shown) [Example 3.98, 3-[4-(3-{[4-(difluoromethyl)pyrimidin-2-yl]amino}-5-methylphenyl)-1H-pyrazol-1-yl]butan-2-one], the IC50 is no more than 100 nM.

As to `Cc1cc(Nc2nccc(C(F)(F)F)n2)cc(-c2cnn(CC3OC(=O)NC3(C)C)c2)c1` (stereo not shown) [Example 3.99, 4,4-dimethyl-5-{[4-(3-methyl-5-{[4-(trifluoromethyl)pyrimidin-2-yl]amino}phenyl)-1H-pyrazol-1-yl]methyl}-1,3-oxazolidin-2-one], the IC50 is no more than 100 nM.

`Cc1cc(Nc2nccc(C(F)(F)F)n2)cc(-c2cnn(CC3OC(=O)NC3(C)C)c2)c1` (stereo not shown) [Example 3.100, 4,4-dimethyl-5-{[4-(3-methyl-5-{[4-(trifluoromethyl)pyrimidin-2-yl]amino}phenyl)-1H-pyrazol-1-yl]methyl}-1,3-oxazolidin-2-one]: the IC50 was no more than 100 nM.

Consider `Cc1cc(Nc2nccc(C(C)(F)F)n2)cc(-c2cnn(CC3OC(=O)NC3(C)C)c2)c1` (stereo not shown) [Example 3.101, 5-{[4-(3-{[4-(1,1-difluoroethyl)pyrimidin-2-yl]amino}-5-methylphenyl)-1H-pyrazol-1-yl]methyl}-4,4-dimethyl-1,3-oxazolidin-2-one], for which the IC50 was no more than 100 nM.

`Cc1cc(Nc2nccc(C(F)F)n2)cc(-c2cnn(CC3OC(=O)NC3(C)C)c2)c1` (stereo not shown) [Example 3.102, 5-{[4-(3-{[4-(difluoromethyl)pyrimidin-2-yl]amino}-5-methylphenyl)-1H-pyrazol-1-yl]methyl}-4,4-dimethyl-1,3-oxazolidin-2-one]: the IC50 is no more than 100 nM.

`Cc1cc(Nc2nccc(C(F)F)n2)cc(-c2cnn(CC3OC(=O)NC3(C)C)c2)c1` (stereo not shown) [Example 3.103, 5-{[4-(3-{[4-(difluoromethyl)pyrimidin-2-yl]amino}-5-methylphenyl)-1H-pyrazol-1-yl]methyl}-4,4-dimethyl-1,3-oxazolidin-2-one]: the IC50 was no more than 100 nM.

On to `Cc1cc(Nc2nccc(C(C)(F)F)n2)cc(-c2cnn(CC3OC(=O)NC3(C)C)c2)c1` (stereo not shown) [Example 3.104, 5-{[4-(3-{[4-(1,1-difluoroethyl)pyrimidin-2-yl]amino}-5-methylphenyl)-1H-pyrazol-1-yl]methyl}-4,4-dimethyl-1,3-oxazolidin-2-one], for which the IC50 is no more than 100 nM.

As for `Cc1cc(Nc2nccc(C)n2)cc(-c2cnn(CC3OC(=O)NC3(C)C)c2)c1` (stereo not shown) [Example 3.105, 4,4-dimethyl-5-[(4-{3-methyl-5-[(4-methylpyrimidin-2-yl)amino]phenyl}-1H-pyrazol-1-yl)methyl]-1,3-oxazolidin-2-one], the IC50 was no more than 100 nM.

As to `Cc1cc(Nc2nccc(C)n2)cc(-c2cnn(CC3OC(=O)NC3(C)C)c2)c1` (stereo not shown) [Example 3.106, 4,4-dimethyl-5-[(4-{3-methyl-5-[(4-methylpyrimidin-2-yl)amino]phenyl}-1H-pyrazol-1-yl)methyl]-1,3-oxazolidin-2-one], the IC50 is no more than 100 nM.

Consider `Cc1cc(Nc2nccc(C(F)(F)F)n2)cc(-c2cnn(CC3NC(=O)OC3C)c2)c1` (stereo not shown) [Example 3.107, 5-methyl-4-{[4-(3-methyl-5-{[4-(trifluoromethyl)pyrimidin-2-yl]amino}phenyl)-1H-pyrazol-1-yl]methyl}-1,3-oxazolidin-2-one], for which the IC50 was no more than 100 nM.

`Cc1cc(Nc2nccc(C(F)F)n2)cc(-c2cnn(Cc3cnc(C)[nH]3)c2)c1` [Example 3.108, 4-(difluoromethyl)-N-(3-methyl-5-{1-[(2-methyl-1H-imidazol-5-yl)methyl]-1H-pyrazol-4-yl}phenyl)pyrimidin-2-amine]: the IC50 was no more than 100 nM.

As to `Cc1cc(Nc2nccc(C(F)F)n2)cc(-c2cnn(Cc3[nH]cnc3C)c2)c1` [Example 3.109, 4-(difluoromethyl)-N-(3-methyl-5-{1-[(4-methyl-1H-imidazol-5-yl)methyl]-1H-pyrazol-4-yl}phenyl)pyrimidin-2-amine], the IC50 is no more than 100 nM.

As to `Cc1cc(Nc2nccc(C(F)F)n2)cc(-c2cnn(Cc3c[nH]cn3)c2)c1` [Example 3.110, 4-(difluoromethyl)-N-{3-[1-(1H-imidazol-4-ylmethyl)-1H-pyrazol-4-yl]-5-methylphenyl}pyrimidin-2-amine], the IC50 is no more than 100 nM.

As for `Cc1cc(Nc2nccc(C(F)F)n2)cc(-c2cnn(CCc3cn[nH]c3)c2)c1` [Example 3.111, 4-(difluoromethyl)-N-(3-methyl-5-{1-[2-(1H-pyrazol-4-yl)ethyl]-1H-pyrazol-4-yl}phenyl)pyrimidin-2-amine], the IC50 is no more than 100 nM.

On to `Cc1cc(Nc2nccc(C(F)F)n2)cc(-c2cnn(CC(O)CO)c2)c1` (stereo not shown) [Example 3.112, 3-[4-(3-{[4-(difluoromethyl)pyrimidin-2-yl]amino}-5-methylphenyl)-1H-pyrazol-1-yl]propane-1,2-diol], for which the IC50 is no more than 100 nM.
